Reference: article PMC4109837 (2014)
Values belong to the compound of their own block, whether it stands above or below them.

Key:
[1] = tested on: NOX-S93 (L-RNA, aptamer, four 2'-deoxyribonucleotides (positions not given; Figure 1)) GCGUGAAUAGCCGUUGAAACGCCUUUAGAGAAGCACUAGCACGC; assay: competition in S1PR3 calcium release cell assay; settings: UltraCHO medium, 20 mM Hepes, 100 nM NOX-S93, 10 nM S1P
[2] = tested on: NOX-S93 (L-RNA, aptamer, four 2'-deoxyribonucleotides (positions not given; Figure 1)) GCGUGAAUAGCCGUUGAAACGCCUUUAGAGAAGCACUAGCACGC; assay: neutralisation in S1PR3 calcium release cell assay, direct; settings: UltraCHO medium, 20 mM Hepes

- binding ([1]; up to 3 μM competitor): no
Compound: CCCCCCCCCCCCC/C=C/[C@@H](O)[C@H](CO)NC(C)=O

- binding ([2]; 80 nM C20-S1P): yes
Compound: CCCCCCCCCCCCCCC/C=C/[C@@H](O)[C@@H](N)COP(=O)(O)O

- binding ([2]; 10 nM C17-S1P): yes
Compound: CCCCCCCCCCCC/C=C/[C@@H](O)[C@@H](N)COP(=O)(O)O

- binding ([1]; up to 300 nM competitor): no
Compound: CCCCCCCCCCCCC/C=C/[C@@H](O)[C@@H](N)COP(=O)([O-])OCC[N+](C)(C)C

- binding ([2]; 30 nM dihydro-S1P): yes
Compound: CCCCCCCCCCCCCCC[C@@H](O)[C@@H](N)COP(=O)(O)O

- binding ([2]; 10 nM S1P): yes
Compound: CCCCCCCCCCCCC/C=C/[C@@H](O)[C@@H](N)COP(=O)(O)O

- binding ([1]; up to 3 μM competitor): no
Compound: CCCCCCCCCCCCC/C=C/[C@@H](O)[C@H](COP(=O)(O)O)NC(=O)CCCCCCCCCCCCCCC

- binding ([2]; 50 nM LPA, no inhibition): no
Compound: CCCCCCCC/C=C\CCCCCCCC(=O)OC[C@@H](O)COP(=O)(O)O

- binding ([1]; up to 1 μM competitor): no
Compound: CCCCCCCCCCCCC/C=C/[C@@H](O)[C@@H](N)CO
